Experimental data: the NIST ThermoML archive (doi:10.1016/j.jct.2019.02.025)
Numbers after ± are expanded uncertainties.

Key:
[1] = for mass density / kinematic viscosity: 101.33 kPa, Liquid; for mass density: Vibrating tube method; for surface tension liquid-gas / kinematic viscosity: Surface laser light scattering (SLLS)
[2] = refractive index (Na D-line) (dimensionless); settings: 101.33 kPa, Liquid, Standard Abbe refractometry

In the case of `CCCCCCCC(=O)OCC` [ethyl octanoate], the mass density ([1]; 293.15 K) is reported as 866.99 ± 1.7 kg/m3, the surface tension liquid-gas ([1]; 298.15 K) is reported as 25.38 ± 0.57 mN/m and the kinematic viscosity ([1]; 298.15 K) is reported as 1.52e-06 ± 5.7e-08 m2/s. It also gave a mass density ([1]; 303.15 K) of 858.27 ± 1.7 kg/m3, a mass density ([1]; 313.15 K) of 849.55 ± 1.7 kg/m3 and a surface tension liquid-gas ([1]; 323.14 K) of 23.34 ± 0.48 mN/m. The kinematic viscosity ([1]; 323.14 K) was 1.15e-06 ± 7.1e-08 m2/s, the mass density ([1]; 323.15 K) was 839.92 ± 1.7 kg/m3 and the mass density ([1]; 333.15 K) was 832 ± 1.7 kg/m3. It also gave a mass density ([1]; 343.15 K) of 823.46 ± 1.7 kg/m3, a surface tension liquid-gas ([1]; 348.17 K) of 21.5 ± 0.32 mN/m and a kinematic viscosity ([1]; 348.17 K) of 8.92e-07 ± 3.8e-08 m2/s. For the same compound, the mass density ([1]; 353.15 K) was 814.74 ± 1.6 kg/m3, the mass density ([1]; 363.15 K) was 805.97 ± 1.6 kg/m3 and the mass density ([1]; 373.15 K) was 797.16 ± 1.6 kg/m3. It also gave a surface tension liquid-gas ([1]; 373.19 K) of 19.5 ± 0.33 mN/m, a kinematic viscosity ([1]; 373.19 K) of 6.88e-07 ± 2.6e-08 m2/s and a mass density ([1]; 383.15 K) of 788.08 ± 1.6 kg/m3. The mass density ([1]; 393.15 K) was 779.34 ± 1.6 kg/m3, the surface tension liquid-gas ([1]; 398.2 K) was 17.44 ± 0.11 mN/m and the kinematic viscosity ([1]; 398.2 K) was 5.45e-07 ± 2.2e-08 m2/s. It also gave a mass density ([1]; 403.15 K) of 770.31 ± 1.6 kg/m3, a mass density ([1]; 413.15 K) of 761.18 ± 1.5 kg/m3 and a mass density ([1]; 423.15 K) of 751.94 ± 1.5 kg/m3. It also gave a surface tension liquid-gas ([1]; 423.18 K) of 15.36 ± 0.12 mN/m, a kinematic viscosity ([1]; 423.18 K) of 4.53e-07 ± 1.8e-08 m2/s and a mass density ([1]; 433.15 K) of 742.64 ± 1.5 kg/m3. It also gave a mass density ([1]; 443.15 K) of 733.17 ± 1.5 kg/m3, a surface tension liquid-gas ([1]; 448.17 K) of 13.16 ± 0.17 mN/m and a kinematic viscosity ([1]; 448.17 K) of 3.86e-07 ± 1.7e-08 m2/s. For the same compound, the mass density ([1]; 453.15 K) was 723.58 ± 1.5 kg/m3, the refractive index ([2]; 278.15 K) was 1.42461 ± 0.00052 and the refractive index ([2]; 283.15 K) was 1.42242 ± 0.00052. The refractive index ([2]; 288.15 K) was 1.42025 ± 0.00052, the refractive index ([2]; 293.15 K) was 1.41807 ± 0.00052 and the refractive index ([2]; 298.15 K) was 1.41587 ± 0.00052. For the same compound, the refractive index ([2]; 303.15 K) was 1.41367 ± 0.00052, the refractive index ([2]; 308.15 K) was 1.41148 ± 0.00052 and the refractive index ([2]; 313.15 K) was 1.40926 ± 0.00052. It also gave a refractive index ([2]; 318.15 K) of 1.40703 ± 0.00052, a refractive index ([2]; 323.15 K) of 1.40481 ± 0.00052 and a refractive index ([2]; 328.15 K) of 1.40261 ± 0.00052. It also gave a refractive index ([2]; 333.15 K) of 1.40042 ± 0.00052, a refractive index ([2]; 338.15 K) of 1.39823 ± 0.00052 and a refractive index ([2]; 343.15 K) of 1.39603 ± 0.00052. The refractive index ([2]; 348.15 K) was 1.39386 ± 0.00052, the refractive index ([2]; 353.15 K) was 1.3917 ± 0.00052 and the refractive index ([2]; 358.15 K) was 1.38955 ± 0.00052.

Work on `CCCCCCCCCCCCCC(=O)OCC` [ethyl tetradecanoate] yielded a mass density ([1]; 293.15 K) of 860.8 ± 1.7 kg/m3, a mass density ([1]; 303.15 K) of 853.07 ± 1.7 kg/m3 and a mass density ([1]; 313.15 K) of 845.46 ± 1.7 kg/m3. The surface tension liquid-gas ([1]; 323.14 K) was 24.08 ± 0.47 mN/m, the kinematic viscosity ([1]; 323.14 K) was 2.63e-06 ± 8.9e-08 m2/s and the mass density ([1]; 323.15 K) was 837.86 ± 1.7 kg/m3. The mass density ([1]; 333.15 K) was 830.3 ± 1.7 kg/m3, the mass density ([1]; 343.15 K) was 822.77 ± 1.6 kg/m3 and the surface tension liquid-gas ([1]; 348.16 K) was 22.25 ± 0.52 mN/m. The kinematic viscosity ([1]; 348.16 K) was 1.9e-06 ± 7.8e-08 m2/s, the mass density ([1]; 353.15 K) was 815.26 ± 1.6 kg/m3 and the mass density ([1]; 363.15 K) was 807.75 ± 1.6 kg/m3. The mass density ([1]; 373.15 K) was 799.27 ± 1.6 kg/m3, the surface tension liquid-gas ([1]; 373.22 K) was 20.56 ± 0.24 mN/m and the kinematic viscosity ([1]; 373.22 K) was 1.43e-06 ± 7.2e-08 m2/s. It also gave a mass density ([1]; 383.15 K) of 792.77 ± 1.6 kg/m3, a mass density ([1]; 393.15 K) of 785.27 ± 1.6 kg/m3 and a surface tension liquid-gas ([1]; 398.24 K) of 19.48 ± 0.18 mN/m. It also gave a kinematic viscosity ([1]; 398.24 K) of 1.12e-06 ± 4.3e-08 m2/s, a mass density ([1]; 403.15 K) of 777.75 ± 1.6 kg/m3 and a mass density ([1]; 413.15 K) of 770.21 ± 1.6 kg/m3. The mass density ([1]; 423.15 K) was 762.65 ± 1.5 kg/m3, the surface tension liquid-gas ([1]; 423.26 K) was 18.15 ± 0.3 mN/m and the kinematic viscosity ([1]; 423.26 K) was 8.97e-07 ± 3.2e-08 m2/s. For the same compound, the mass density ([1]; 433.15 K) was 755.04 ± 1.5 kg/m3, the mass density ([1]; 443.15 K) was 747.42 ± 1.5 kg/m3 and the surface tension liquid-gas ([1]; 448.28 K) was 16.53 ± 0.1 mN/m. It also gave a kinematic viscosity ([1]; 448.28 K) of 7.25e-07 ± 2.5e-08 m2/s, a mass density ([1]; 453.15 K) of 739.78 ± 1.5 kg/m3 and a refractive index ([2]; 288.15 K) of 1.43841 ± 0.00049. It also gave a refractive index ([2]; 293.15 K) of 1.43636 ± 0.00049, a refractive index ([2]; 298.15 K) of 1.43432 ± 0.00049 and a refractive index ([2]; 303.15 K) of 1.4323 ± 0.00049. The refractive index ([2]; 308.15 K) was 1.43026 ± 0.00049, the refractive index ([2]; 313.15 K) was 1.4282 ± 0.00049 and the refractive index ([2]; 318.15 K) was 1.42613 ± 0.00049. The refractive index ([2]; 323.15 K) was 1.42407 ± 0.00049, the refractive index ([2]; 328.15 K) was 1.42205 ± 0.00049 and the refractive index ([2]; 333.15 K) was 1.42004 ± 0.00049. The refractive index ([2]; 338.15 K) was 1.41803 ± 0.00049, the refractive index ([2]; 343.15 K) was 1.41603 ± 0.00049 and the refractive index ([2]; 348.15 K) was 1.41406 ± 0.00049. The refractive index ([2]; 353.15 K) was 1.41208 ± 0.00049 and the refractive index ([2]; 358.15 K) was 1.4101 ± 0.00049.

`CCCCCCCCCC(=O)OC` [methyl decanoate] showed a mass density ([1]; 293.15 K) of 872.34 ± 1.8 kg/m3, a surface tension liquid-gas ([1]; 298.14 K) of 24.73 ± 0.67 mN/m and a kinematic viscosity ([1]; 298.14 K) of 2.09e-06 ± 7.4e-08 m2/s. It also gave a mass density ([1]; 303.15 K) of 864.01 ± 1.7 kg/m3, a mass density ([1]; 313.15 K) of 855.73 ± 1.7 kg/m3 and a mass density ([1]; 323.15 K) of 847.47 ± 1.7 kg/m3. It also gave a surface tension liquid-gas ([1]; 323.16 K) of 23.28 ± 0.32 mN/m, a kinematic viscosity ([1]; 323.16 K) of 1.48e-06 ± 4.3e-08 m2/s and a mass density ([1]; 333.15 K) of 839.2 ± 1.7 kg/m3. For the same compound, the mass density ([1]; 343.15 K) was 830.94 ± 1.7 kg/m3, the surface tension liquid-gas ([1]; 348.16 K) was 21.96 ± 0.27 mN/m and the kinematic viscosity ([1]; 348.16 K) was 1.13e-06 ± 4e-08 m2/s. For the same compound, the mass density ([1]; 353.15 K) was 822.61 ± 1.7 kg/m3, the mass density ([1]; 363.15 K) was 814.38 ± 1.6 kg/m3 and the mass density ([1]; 373.15 K) was 806.06 ± 1.6 kg/m3. The surface tension liquid-gas ([1]; 373.17 K) was 20.49 ± 0.29 mN/m, the kinematic viscosity ([1]; 373.17 K) was 8.74e-07 ± 3.1e-08 m2/s and the mass density ([1]; 383.15 K) was 797.7 ± 1.6 kg/m3. It also gave a mass density ([1]; 393.15 K) of 789.29 ± 1.6 kg/m3, a surface tension liquid-gas ([1]; 398.08 K) of 18.81 ± 0.22 mN/m and a kinematic viscosity ([1]; 398.08 K) of 6.87e-07 ± 2.4e-08 m2/s. The mass density ([1]; 403.15 K) was 780.82 ± 1.6 kg/m3, the mass density ([1]; 413.15 K) was 771.74 ± 1.6 kg/m3 and the surface tension liquid-gas ([1]; 422.99 K) was 16.83 ± 0.22 mN/m. It also gave a kinematic viscosity ([1]; 422.99 K) of 5.61e-07 ± 2.1e-08 m2/s, a mass density ([1]; 423.15 K) of 763.71 ± 1.5 kg/m3 and a mass density ([1]; 433.15 K) of 755 ± 1.5 kg/m3. It also gave a mass density ([1]; 443.15 K) of 746.3 ± 1.5 kg/m3, a surface tension liquid-gas ([1]; 447.95 K) of 14.87 ± 0.19 mN/m and a kinematic viscosity ([1]; 447.95 K) of 4.52e-07 ± 2.1e-08 m2/s. The mass density ([1]; 453.15 K) was 737.39 ± 1.5 kg/m3, the refractive index ([2]; 278.15 K) was 1.43209 ± 0.00052 and the refractive index ([2]; 283.15 K) was 1.42995 ± 0.00052. For the same compound, the refractive index ([2]; 288.15 K) was 1.42783 ± 0.00052, the refractive index ([2]; 293.15 K) was 1.42571 ± 0.00052 and the refractive index ([2]; 298.15 K) was 1.42359 ± 0.00052. It also gave a refractive index ([2]; 303.15 K) of 1.42148 ± 0.00052, a refractive index ([2]; 308.15 K) of 1.41938 ± 0.00052 and a refractive index ([2]; 313.15 K) of 1.41726 ± 0.00052. It also gave a refractive index ([2]; 318.15 K) of 1.4151 ± 0.00052, a refractive index ([2]; 323.15 K) of 1.41295 ± 0.00052 and a refractive index ([2]; 328.15 K) of 1.41083 ± 0.00052. For the same compound, the refractive index ([2]; 333.15 K) was 1.40871 ± 0.00052, the refractive index ([2]; 338.15 K) was 1.40659 ± 0.00052 and the refractive index ([2]; 343.15 K) was 1.40448 ± 0.00052. It also gave a refractive index ([2]; 348.15 K) of 1.40237 ± 0.00052, a refractive index ([2]; 353.15 K) of 1.40028 ± 0.00052 and a refractive index ([2]; 358.15 K) of 1.39819 ± 0.00052.
